Assay: Safety and tolerability (adverse events), Study 1 SAD in healthy participants
Assay type: in vivo, human
[1] = Study 1 SAD group, BMS-986142-treated
[2] = Study 1 SAD, all BMS-986142 doses, n = 36

## Cc1c(-c2c(F)cc(C(N)=O)c3[nH]c4c(c23)CC[C@H](C(C)(C)O)C4)cccc1-n1c(=O)c2cccc(F)c2n(C)c1=O [BMS-986142, 6-fluoro-5-(R)-(3-(S)-(8-fluoro-1-methyl-2,4-dioxo-1,2-dihydroquinazolin-3(4H)-yl)-2-methylphenyl)-2-(S)-(2-hydroxypropan-2-yl)-2,3,4,9-tetrahydro-1H-carbazole-8-carboxamide]
SAD 5 mg, n = 6
  AE SOC: Gastrointestinal Disorders: 0 n (%)
  AE SOC: General disorders and administration site conditions: 0 n (%)
  AE SOC: Infections and infestations: 0 n (%)
  AE SOC: Injury, poisoning and procedural complications: 0 n (%)
  AE SOC: Musculoskeletal and connective tissue disorders: 0 n (%)
  AE SOC: Nervous system disorders: 0 n (%)
  AE SOC: Renal and urinary disorders: 0 n (%)
  AE SOC: Respiratory, thoracic and mediastinal disorders: 0 n (%)
  AE: Aphthous stomatitis: 0 n (%)
  AE: Chest pain: 0 n (%)
  AE: Contusion: 0 n (%)
  AE: Cough: 0 n (%)
  AE: Diarrhoea: 0 n (%)
  AE: Dizziness: 0 n (%)
  AE: Headache: 0 n (%)
  AE: Lip Dry: 0 n (%)
  AE: Muscle spasms: 0 n (%)
  AE: Nausea: 0 n (%)
  AE: Paraesthesia: 0 n (%)
  AE: Polyuria: 0 n (%)
  AE: Syncope: 0 n (%)
  AE: Tension headache: 0 n (%)
  AE: Thermal burn: 0 n (%)
  AE: Toothache: 0 n (%)
  AE: Upper respiratory tract infection: 0 n (%)
  AE: Vomiting: 0 n (%)
  Total participants with an event: 0 n (%)
SAD 15 mg, n = 6
  AE SOC: Gastrointestinal Disorders: 1 (16.7) n (%)
  AE SOC: General disorders and administration site conditions: 0 n (%)
  AE SOC: Infections and infestations: 0 n (%)
  AE SOC: Injury, poisoning and procedural complications: 0 n (%)
  AE SOC: Musculoskeletal and connective tissue disorders: 0 n (%)
  AE SOC: Nervous system disorders: 0 n (%)
  AE SOC: Renal and urinary disorders: 0 n (%)
  AE SOC: Respiratory, thoracic and mediastinal disorders: 0 n (%)
  AE: Aphthous stomatitis: 1 (16.7) n (%)
  AE: Chest pain: 0 n (%)
  AE: Contusion: 0 n (%)
  AE: Cough: 0 n (%)
  AE: Diarrhoea: 0 n (%)
  AE: Dizziness: 0 n (%)
  AE: Headache: 0 n (%)
  AE: Lip Dry: 0 n (%)
  AE: Muscle spasms: 0 n (%)
  AE: Nausea: 0 n (%)
  AE: Paraesthesia: 0 n (%)
  AE: Polyuria: 0 n (%)
  AE: Syncope: 0 n (%)
  AE: Tension headache: 0 n (%)
  AE: Thermal burn: 0 n (%)
  AE: Toothache: 0 n (%)
  AE: Upper respiratory tract infection: 0 n (%)
  AE: Vomiting: 0 n (%)
  Total participants with an event: 1 (16.7) n (%)
SAD 50 mg, n = 6
  AE SOC: Gastrointestinal Disorders: 0 n (%)
  AE SOC: General disorders and administration site conditions: 0 n (%)
  AE SOC: Infections and infestations: 1 (16.7) n (%)
  AE SOC: Injury, poisoning and procedural complications: 1 (16.7) n (%)
  AE SOC: Musculoskeletal and connective tissue disorders: 1 (16.7) n (%)
  AE SOC: Nervous system disorders: 2 (33.3) n (%)
  AE SOC: Renal and urinary disorders: 0 n (%)
  AE SOC: Respiratory, thoracic and mediastinal disorders: 0 n (%)
  AE: Aphthous stomatitis: 0 n (%)
  AE: Chest pain: 0 n (%)
  AE: Contusion: 1 (16.7) n (%)
  AE: Cough: 0 n (%)
  AE: Diarrhoea: 0 n (%)
  AE: Dizziness: 0 n (%)
  AE: Headache: 2 (33.3) n (%)
  AE: Lip Dry: 0 n (%)
  AE: Muscle spasms: 1 (16.7) n (%)
  AE: Nausea: 0 n (%)
  AE: Paraesthesia: 0 n (%)
  AE: Polyuria: 0 n (%)
  AE: Syncope: 0 n (%)
  AE: Tension headache: 0 n (%)
  AE: Thermal burn: 1 (16.7) n (%)
  AE: Toothache: 0 n (%)
  AE: Upper respiratory tract infection: 1 (16.7) n (%)
  AE: Vomiting: 0 n (%)
  Total participants with an event: 2 (33.3) n (%)
SAD 100 mg, n = 6
  AE SOC: Gastrointestinal Disorders: 1 (16.7) n (%)
  AE SOC: General disorders and administration site conditions: 0 n (%)
  AE SOC: Infections and infestations: 0 n (%)
  AE SOC: Injury, poisoning and procedural complications: 0 n (%)
  AE SOC: Musculoskeletal and connective tissue disorders: 0 n (%)
  AE SOC: Nervous system disorders: 1 (16.7) n (%)
  AE SOC: Renal and urinary disorders: 1 (16.7) n (%)
  AE SOC: Respiratory, thoracic and mediastinal disorders: 0 n (%)
  AE: Aphthous stomatitis: 0 n (%)
  AE: Chest pain: 0 n (%)
  AE: Contusion: 0 n (%)
  AE: Cough: 0 n (%)
  AE: Diarrhoea: 0 n (%)
  AE: Dizziness: 0 n (%)
  AE: Headache: 0 n (%)
  AE: Lip Dry: 0 n (%)
  AE: Muscle spasms: 0 n (%)
  AE: Nausea: 0 n (%)
  AE: Paraesthesia: 0 n (%)
  AE: Polyuria: 1 (16.7) n (%)
  AE: Syncope: 0 n (%)
  AE: Tension headache: 1 (16.7) n (%)
  AE: Thermal burn: 0 n (%)
  AE: Toothache: 0 n (%)
  AE: Upper respiratory tract infection: 0 n (%)
  AE: Vomiting: 1 (16.7) n (%)
  Total participants with an event: 2 (33.3) n (%)
SAD 300 mg, n = 6
  AE SOC: Gastrointestinal Disorders: 1 (16.7) n (%)
  AE SOC: General disorders and administration site conditions: 0 n (%)
  AE SOC: Infections and infestations: 0 n (%)
  AE SOC: Injury, poisoning and procedural complications: 0 n (%)
  AE SOC: Musculoskeletal and connective tissue disorders: 0 n (%)
  AE SOC: Nervous system disorders: 0 n (%)
  AE SOC: Renal and urinary disorders: 0 n (%)
  AE SOC: Respiratory, thoracic and mediastinal disorders: 0 n (%)
  AE: Aphthous stomatitis: 0 n (%)
  AE: Chest pain: 0 n (%)
  AE: Contusion: 0 n (%)
  AE: Cough: 0 n (%)
  AE: Diarrhoea: 0 n (%)
  AE: Dizziness: 0 n (%)
  AE: Headache: 0 n (%)
  AE: Lip Dry: 1 (16.7) n (%)
  AE: Muscle spasms: 0 n (%)
  AE: Nausea: 0 n (%)
  AE: Paraesthesia: 0 n (%)
  AE: Polyuria: 0 n (%)
  AE: Syncope: 0 n (%)
  AE: Tension headache: 0 n (%)
  AE: Thermal burn: 0 n (%)
  AE: Toothache: 0 n (%)
  AE: Upper respiratory tract infection: 0 n (%)
  AE: Vomiting: 0 n (%)
  Total participants with an event: 1 (16.7) n (%)
SAD 900 mg, n = 6
  AE SOC: Gastrointestinal Disorders: 2 (33.3) n (%)
  AE SOC: General disorders and administration site conditions: 1 (16.7) n (%)
  AE SOC: Infections and infestations: 1 (16.7) n (%)
  AE SOC: Injury, poisoning and procedural complications: 0 n (%)
  AE SOC: Musculoskeletal and connective tissue disorders: 0 n (%)
  AE SOC: Nervous system disorders: 2 (33.3) n (%)
  AE SOC: Renal and urinary disorders: 0 n (%)
  AE SOC: Respiratory, thoracic and mediastinal disorders: 1 (16.7) n (%)
  AE: Aphthous stomatitis: 0 n (%)
  AE: Chest pain: 1 (16.7) n (%)
  AE: Contusion: 0 n (%)
  AE: Cough: 1 (16.7) n (%)
  AE: Diarrhoea: 1 (16.7) n (%)
  AE: Dizziness: 1 (16.7) n (%)
  AE: Headache: 2 (33.3) n (%)
  AE: Lip Dry: 0 n (%)
  AE: Muscle spasms: 0 n (%)
  AE: Nausea: 1 (16.7) n (%)
  AE: Paraesthesia: 1 (16.7) n (%)
  AE: Polyuria: 0 n (%)
  AE: Syncope: 0 n (%)
  AE: Tension headache: 0 n (%)
  AE: Thermal burn: 0 n (%)
  AE: Toothache: 0 n (%)
  AE: Upper respiratory tract infection: 1 (16.7) n (%)
  AE: Vomiting: 0 n (%)
  Total participants with an event: 2 (33.3) n (%)
SAD any dose, n = 36
  AE SOC: Gastrointestinal Disorders: 5 (13.9) n (%)
  AE SOC: General disorders and administration site conditions: 1 (2.8) n (%)
  AE SOC: Infections and infestations: 2 (5.6) n (%)
  AE SOC: Injury, poisoning and procedural complications: 1 (2.8) n (%)
  AE SOC: Musculoskeletal and connective tissue disorders: 1 (2.8) n (%)
  AE SOC: Nervous system disorders: 5 (13.9) n (%)
  AE SOC: Renal and urinary disorders: 1 (2.8) n (%)
  AE SOC: Respiratory, thoracic and mediastinal disorders: 1 (2.8) n (%)
  AE: Aphthous stomatitis: 1 (2.8) n (%)
  AE: Chest pain: 1 (2.8) n (%)
  AE: Contusion: 1 (2.8) n (%)
  AE: Cough: 1 (2.8) n (%)
  AE: Diarrhoea: 1 (2.8) n (%)
  AE: Dizziness: 1 (2.8) n (%)
  AE: Headache: 4 (11.1) n (%)
  AE: Lip Dry: 1 (2.8) n (%)
  AE: Muscle spasms: 1 (2.8) n (%)
  AE: Nausea: 1 (2.8) n (%)
  AE: Paraesthesia: 1 (2.8) n (%)
  AE: Polyuria: 1 (2.8) n (%)
  AE: Syncope: 0 n (%)
  AE: Tension headache: 1 (2.8) n (%)
  AE: Thermal burn: 1 (2.8) n (%)
  AE: Toothache: 0 n (%)
  AE: Upper respiratory tract infection: 2 (5.6) n (%)
  AE: Vomiting: 1 (2.8) n (%)
  Total participants with an event: 8 (22.2) n (%)
[1]
  Number of AEs reported: 22 AEs
  Participants with AEs: 8 participants
[2]
  AE: Cough: 1 (2.8) n (%)
  AE: Diarrhea: 1 (2.8) n (%)
  AE: Dizziness: 1 (2.8) n (%)
  AE: Headache/tension headache: 5 (13.9) n (%)
  AE: Nausea: 1 (2.8) n (%)
  AE: Thermal burns: 1 (2.8) n (%)
  AE: Upper respiratory tract infection: 2 (5.6) n (%)
  Subjects with AEs: 8 (22.2) n (%)
Healthy participants, alone and in combination with MTX (studies 1 and 2)
  Tolerability: generally well tolerated

— publication PMC5423977, “Safety, pharmacokinetics, and pharmacodynamics of BMS-986142, a novel reversible BTK inhibitor, in healthy participants” (European Journal of Clinical Pharmacology, 2017)
